15 compounds from patent publication US9499550B2 (BRISTOL-MYERS SQUIBB COMPANY, priority 2012, dated 2016) can be followed below.

The subject of assay [1] is HCV genotype 1b (Con1) replicon in HUH-7 cells. The assay can be described thus: HCV replicon luciferase reporter assay, genotype 1b. The assay is classed as cell-based. As to conditions: Hepatitis C virus, Huh-7, 72 h, HCV genotype 1b replicon luciferase, 3 days incubation. An outline of the steps: (§1)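 Replicon inhibition for both genotypes was measured as Renilla luciferase signal (EnduRen, 7.5 μM final, 2 h) after 3-day, 37° C exposure of replicon-bearing HUH-7 cells in 4% FCS DMEM, 0.5% DMSO. The 1b construct carries S1179I; the 1a H77 construct carries P1496L and S2204I. Twenty-point, 3-fold dilutions were fitted four-parametrically for EC50, and CC50 was taken from multiplexed Cell Titer-Blue.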
(In general: A replicon is a self-replicating genome or part of one, used to study replication in cells.)

Assay [2] has as its system HCV genotype 1a (H77 strain) replicon in HUH-7 cells. The assay can be described thus: HCV replicon luciferase reporter assay, genotype 1a. The format is cell-based. As to conditions: Hepatitis C virus, Huh-7, 72 h, HCV genotype 1a replicon luciferase, 3 days incubation. The method, boiled down: as §1

The structures appear in SMILES notation. Where two headings read alike, the source gives them in different places.

What is called EC50 is the concentration that produces a half-maximal response. Take `COc1nnc(O[C@@H]2C[C@H]3C(=O)N[C@]4(C(=O)NS(=O)(=O)C5(C)CC5)C[C@H]4/C=C\CC[C@@H](C)C[C@@H](C)[C@H](NC(=O)OC(C)(C)C(F)(F)F)C(=O)N3C2)c2ccccc12` [Compound 5008, 1,1,1-trifluoro-2-methylpropan-2-yl((2R,6S,7R,9R,13aS,14aR,16aS,Z)-2-((4-methoxyphthalazin-1-yl)oxy)-7,9-dimethyl-14a-(((1-methylcyclopropyl)sulfonyl)carbamoyl)-5,16-dioxo-1,2,3,5,6,7,8,9,10,11,13a,14,14a,15,16,16a-hexadecahydrocyclopropa[e]pyrrolo[1,2-a][1,4]diazacyclopentadecin-6-yl)carbamate]: the EC50 in assay [1] (read-out: LE_1b (EC50, range)) was less than 5.46 nM; in assay [2] (read-out: LE_1a (EC50, range)), less than 5.46 nM.

In the case of `[2H]C([2H])([2H])C(OC(=O)N[C@@H]1C(=O)N2C[C@H](Oc3nnc(OC)c4ccccc34)C[C@H]2C(=O)N[C@]2(C(=O)NS(=O)(=O)C3(C)CC3)C[C@H]2/C=C\CC[C@H](C)C[C@H]1C)(C([2H])([2H])[2H])C(F)(F)F` [Compound 5009], the EC50 in assay [1] (read-out: LE_1b (EC50, range)) was less than 5.46 nM; in assay [2] (read-out: LE_1a (EC50, range)) it was less than 5.46 nM.

As to `[2H]C([2H])([2H])C(OC(=O)N[C@@H]1C(=O)N2C[C@H](Oc3nnc(OC)c4ccccc34)C[C@H]2C(=O)N[C@]2(C(=O)NS(=O)(=O)C3(C)CC3)C[C@H]2/C=C\CC[C@@H](C)C[C@H]1C)(C([2H])([2H])[2H])C(F)(F)F` [Compound 5010], the EC50 in assay [1] (read-out: LE_1b (EC50, range)) is less than 5.46 nM; in assay [2] (read-out: LE_1a (EC50, range)), less than 5.46 nM.

As for `COc1nnc(O[C@@H]2C[C@H]3C(=O)N[C@]4(C(=O)NS(=O)(=O)C5(C)CC5)C[C@H]4/C=C\CC[C@H](C)C[C@@H](C)[C@H](NC(=O)NC(C)(C)C)C(=O)N3C2)c2ccccc12` [Compound 5011, (2R,6S,7R,9S,13aS,14aR,16aS,Z)-6-(3-(tert-butyl)ureido)-2-((4-methoxyphthalazin-1-yl)oxy)-7,9-dimethyl-N-((1-methylcyclopropyl)sulfonyl)-5,16-dioxo-1,2,3,5,6,7,8,9,10,11,13a,14,14a,15,16,16a-hexadecahydrocyclopropa[e]pyrrolo[1,2-a][1,4]diazacyclopentadecine-14a-carboxamide], the concentration giving a half-maximal response (EC50) in assay [1] (read-out: LE_1b (EC50)) was 14.2 nM; in assay [1] (read-out: LE_1b (EC50, range)) it was 4.82 to 103 nM; in assay [2] (read-out: LE_1a (EC50)), 41.1 nM; in assay [2] (read-out: LE_1a (EC50, range)), 4.82 to 103 nM.

On to `COc1nnc(O[C@@H]2C[C@H]3C(=O)N[C@]4(C(=O)NS(=O)(=O)C5(C)CC5)C[C@H]4/C=C\CC[C@@H](C)C[C@@H](C)[C@H](NC(=O)NC(C)(C)C)C(=O)N3C2)c2ccccc12` [Compound 5012, (2R,6S,7R,9R,13aS,14aR,16aS,Z)-6-(3-(tert-butyl)ureido)-2-((4-methoxyphthalazin-1-yl)oxy)-7,9-dimethyl-N-((1-methylcyclopropyl)sulfonyl)-5,16-dioxo-1,2,3,5,6,7,8,9,10,11,13a,14,14a,15,16,16a-hexadecahydrocyclopropa[e]pyrrolo[1,2-a][1,4]diazacyclopentadecine-14a-carboxamide], for which the EC50 in assay [1] (read-out: LE_1b (EC50, range)) is less than 5.46 nM; in assay [2] (read-out: LE_1a (EC50, range)), less than 5.46 nM.

With `COc1nnc(O[C@@H]2C[C@H]3C(=O)N[C@]4(C(=O)NS(=O)(=O)C5(C)CC5)C[C@H]4/C=C\CC[C@H](C)C[C@@H](C)[C@H](NC(=O)O[C@@H]4C[C@@H]5C[C@@H]5C4)C(=O)N3C2)c2ccccc12` [Compound 5013, (1R,3r,5S)-bicyclo[3.1.0]hexan-3-yl((2R,6S,7R,9S,13aS,14aR,16aS,Z)-2-((4-methoxyphthalazin-1-yl)oxy)-7,9-dimethyl-14a-(((1-methylcyclopropyl)sulfonyl)carbamoyl)-5,16-dioxo-1,2,3,5,6,7,8,9,10,11,13a,14,14a,15,16,16a-hexadecahydrocyclopropa[e]pyrrolo[1,2-a][1,4]diazacyclopentadecin-6-yl)carbamate], the concentration giving a half-maximal response (EC50) was less than 5.46 nM in assay [1] (read-out: LE_1b (EC50, range)) and less than 5.46 nM in assay [2] (read-out: LE_1a (EC50, range)).

For `COc1nnc(O[C@@H]2C[C@H]3C(=O)N[C@]4(C(=O)NS(=O)(=O)C5(C)CC5)C[C@H]4/C=C\CC[C@@H](C)C[C@@H](C)[C@H](NC(=O)O[C@@H]4C[C@@H]5C[C@@H]5C4)C(=O)N3C2)c2ccccc12` [Compound 5014, (1R,3r,5S)-bicyclo[3.1.0]hexan-3-yl((2R,6S,7R,9R,13aS,14aR,16aS,Z)-2-((4-methoxyphthalazin-1-yl)oxy)-7,9-dimethyl-14a-(((1-methylcyclopropyl)sulfonyl)carbamoyl)-5,16-dioxo-1,2,3,5,6,7,8,9,10,11,13a,14,14a,15,16,16a-hexadecahydrocyclopropa[e]pyrrolo[1,2-a][1,4]diazacyclopentadecin-6-yl)carbamate], the 50% effective concentration (EC50) was less than 5.46 nM in assay [1] (read-out: LE_1b (EC50, range)) and less than 5.46 nM in assay [2] (read-out: LE_1a (EC50, range)).

On to `COc1nnc(O[C@@H]2C[C@H]3C(=O)N[C@]4(C(=O)NS(=O)(=O)C5(C)CC5)C[C@H]4/C=C\CC[C@H](C)C[C@@H](C)[C@H](NC(=O)OC(C)(C)C)C(=O)N3C2)c2ccccc12` [Compound 5015, tert-butyl ((2R,6S,7R,9S,13aS,14aR,16aS,Z)-2-((4-methoxyphthalazin-1-yl)oxy)-7,9-dimethyl-14a-(((1-methylcyclopropyl)sulfonyl)carbamoyl)-5,16-dioxo-1,2,3,5,6,7,8,9,10,11,13a,14,14a,15,16,16a-hexadecahydrocyclopropa[e]pyrrolo[1,2-a][1,4]diazacyclopentadecin-6-yl)carbamate], for which the EC50 in assay [1] (read-out: LE_1b (EC50, range)) is less than 5.46 nM; in assay [2] (read-out: LE_1a (EC50, range)) it was 4.82 to 103 nM.

For `COc1nnc(O[C@@H]2C[C@H]3C(=O)N[C@]4(C(=O)NS(=O)(=O)C5(C)CC5)C[C@H]4/C=C\CC[C@@H](C)C[C@@H](C)[C@H](NC(=O)OC(C)(C)C)C(=O)N3C2)c2ccccc12` [Compound 5016, tert-butyl ((2R,6S,7R,9R,13aS,14aR,16aS,Z)-2-((4-methoxyphthalazin-1-yl)oxy)-7,9-dimethyl-14a-(((1-methylcyclopropyl)sulfonyl)carbamoyl)-5,16-dioxo-1,2,3,5,6,7,8,9,10,11,13a,14,14a,15,16,16a-hexadecahydrocyclopropa[e]pyrrolo[1,2-a][1,4]diazacyclopentadecin-6-yl)carbamate], the 50% effective concentration (EC50) is less than 5.46 nM in assay [1] (read-out: LE_1b (EC50, range)) and less than 5.46 nM in assay [2] (read-out: LE_1a (EC50, range)).

As for `CC[C@@H]1C[C@@H](C)CC/C=C\[C@@H]2C[C@@]2(C(=O)NS(=O)(=O)C2(C)CC2)NC(=O)[C@@H]2C[C@@H](Oc3nnc(OC)c4ccccc34)CN2C(=O)[C@H]1NC(=O)OC(C)(C)C(F)(F)F` [Compound 5017, 1,1,1-trifluoro-2-methylpropan-2-yl((2R,6S,7R,9S,13aS,14aR,16aS,Z)-7-ethyl-2-((4-methoxyphthalazin-1-yl)oxy)-9-methyl-14a-(((1-methylcyclopropyl)sulfonyl)carbamoyl)-5,16-dioxo-1,2,3,5,6,7,8,9,10,11,13a,14,14a,15,16,16a-hexadecahydrocyclopropa[e]pyrrolo[1,2-a][1,4]diazacyclopentadecin-6-yl)carbamate], the EC50 in assay [1] (read-out: LE_1b (EC50, range)) is less than 5.46 nM; in assay [2] (read-out: LE_1a (EC50, range)) it was 4.82 to 103 nM.

`CC[C@@H]1C[C@H](C)CC/C=C\[C@@H]2C[C@@]2(C(=O)NS(=O)(=O)C2(C)CC2)NC(=O)[C@@H]2C[C@@H](Oc3nnc(OC)c4ccccc34)CN2C(=O)[C@H]1NC(=O)OC(C)(C)C(F)(F)F` [Compound 5018, 1,1,1-trifluoro-2-methylpropan-2-yl((2R,6S,7R,9R,13aS,14aR,16aS,Z)-7-ethyl-2-((4-methoxyphthalazin-1-yl)oxy)-9-methyl-14a-(((1-methylcyclopropyl)sulfonyl)carbamoyl)-5,16-dioxo-1,2,3,5,6,7,8,9,10,11,13a,14,14a,15,16,16a-hexadecahydrocyclopropa[e]pyrrolo[1,2-a][1,4]diazacyclopentadecin-6-yl)carbamate]: the EC50 in assay [1] (read-out: LE_1b (EC50, range)) is less than 5.46 nM; in assay [2] (read-out: LE_1a (EC50, range)), less than 5.46 nM.

Turning to `[2H]C([2H])([2H])C(OC(=O)N[C@@H]1C(=O)N2C[C@H](Oc3nnc(OC)c4ccccc34)C[C@H]2C(=O)N[C@]2(C(=O)NS(=O)(=O)C3(C)CC3)C[C@H]2/C=C\CC[C@H](C)C[C@H]1CC)(C([2H])([2H])[2H])C(F)(F)F` [Compound 5019], the half-maximal effective concentration (EC50) in assay [1] (read-out: LE_1b (EC50)) was 3.65 nM; in assay [1] (read-out: LE_1b (EC50, range)) it was less than 5.46 nM; in assay [2] (read-out: LE_1a (EC50)) it was 7.27 nM; in assay [2] (read-out: LE_1a (EC50, range)), 4.82 to 103 nM.

Take `[2H]C([2H])([2H])C(OC(=O)N[C@@H]1C(=O)N2C[C@H](Oc3nnc(OC)c4ccccc34)C[C@H]2C(=O)N[C@]2(C(=O)NS(=O)(=O)C3(C)CC3)C[C@H]2/C=C\CC[C@@H](C)C[C@H]1CC)(C([2H])([2H])[2H])C(F)(F)F` [Compound 5020]: the EC50 was less than 5.46 nM in assay [1] (read-out: LE_1b (EC50, range)) and less than 5.46 nM in assay [2] (read-out: LE_1a (EC50, range)).

As for `[2H]C([2H])([2H])C(C)(OC(=O)N[C@@H]1C(=O)N2C[C@H](Oc3nnc(OC)c4ccccc34)C[C@H]2C(=O)N[C@]2(C(=O)NS(=O)(=O)C3(C)CC3)C[C@H]2/C=C\CC[C@H](C)C[C@H]1CC)C([2H])([2H])[2H]` [Compound 5021], the concentration giving a half-maximal response (EC50) in assay [1] (read-out: LE_1b (EC50, range)) is less than 5.46 nM; in assay [2] (read-out: LE_1a (EC50, range)), 4.82 to 103 nM.

As for `[2H]C([2H])([2H])C(C)(OC(=O)N[C@@H]1C(=O)N2C[C@H](Oc3nnc(OC)c4ccccc34)C[C@H]2C(=O)N[C@]2(C(=O)NS(=O)(=O)C3(C)CC3)C[C@H]2/C=C\CC[C@@H](C)C[C@H]1CC)C([2H])([2H])[2H]` [Compound 5022], the EC50 in assay [1] (read-out: LE_1b (EC50, range)) was less than 5.46 nM; in assay [2] (read-out: LE_1a (EC50, range)) it was less than 5.46 nM.
